Values of other authors in US10059696B2, “Process for preparing 1,3-dihydroimidazole-2-thione derivatives” (BIAL-PORTELA & CA, S.A., priority 2011, dated 2018).

Details: able to cause central as well as peripheral effects

## NCc1c[nH]c(=S)n1[C@H]1CCc2c(F)cc(F)cc2C1 [nepicastat]
  blood brain barrier (BBB) crossing: found to cross the blood brain barrier
